Measured values reported in article PMC7055011 (Bioorganic & medicinal chemistry, 2019).

Legend:
[1] = Human liver microsomal stability; format: in vitro ADME; conditions: for CLint scaled at 2 h, 1 µM: human, microsomes, pH 7.4
apelin receptor = conditions: cited from earlier work
NTR2 = conditions: compared with hit 8; cited from earlier work
[2] = biological target: T1, human angiotensin II receptor, type I (Homo sapiens, UniProt P30556); conditions: cited from earlier work
T1 sequence (P30556 1-359): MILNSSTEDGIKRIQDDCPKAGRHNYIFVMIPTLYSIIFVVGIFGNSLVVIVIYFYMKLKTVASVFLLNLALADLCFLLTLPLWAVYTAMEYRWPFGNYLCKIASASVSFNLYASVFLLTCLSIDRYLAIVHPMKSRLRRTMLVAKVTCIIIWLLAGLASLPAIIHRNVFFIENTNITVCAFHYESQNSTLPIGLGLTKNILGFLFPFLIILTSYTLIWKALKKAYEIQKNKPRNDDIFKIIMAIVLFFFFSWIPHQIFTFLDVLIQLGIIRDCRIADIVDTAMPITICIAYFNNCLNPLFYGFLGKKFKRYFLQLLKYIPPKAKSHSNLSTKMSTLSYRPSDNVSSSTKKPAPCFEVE

hAPJ = biological target: T2, hAPJ (Homo sapiens, UniProt P35414); experiment: Lance cAMP accumulation assay; format: cell-based
T2 sequence (P35414 1-380): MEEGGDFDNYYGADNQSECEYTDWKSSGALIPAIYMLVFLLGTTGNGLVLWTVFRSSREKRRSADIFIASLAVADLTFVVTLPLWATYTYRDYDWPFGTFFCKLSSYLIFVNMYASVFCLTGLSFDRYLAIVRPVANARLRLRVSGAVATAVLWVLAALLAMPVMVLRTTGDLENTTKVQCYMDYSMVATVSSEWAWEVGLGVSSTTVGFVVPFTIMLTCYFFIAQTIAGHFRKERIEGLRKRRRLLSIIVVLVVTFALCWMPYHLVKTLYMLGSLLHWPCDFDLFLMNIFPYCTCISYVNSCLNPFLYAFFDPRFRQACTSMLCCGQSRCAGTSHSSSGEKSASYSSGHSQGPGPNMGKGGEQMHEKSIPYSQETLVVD

[3] = cited from earlier work
[4] = cited from earlier work; remark: listed apart in the source
[5] = test system: 5-HT1A, α2C adrenergic, mu-opioid, benzylpiperazine receptors and norepinephrine transporter; conditions: cited from earlier work

## CCOc1ccc2c(C)cc(=O)oc2c1 [7-ethoxy-4-methylcoumarin]
[1]
  CLint scaled at 2 h, 1 µM: 325 mL/min/kg

## CCC(CC)n1c(Cc2cccs2)nc2cc(C(=O)N[C@H](CC(=O)O)CC(C)C)ccc21 [CMF-019, (S)-5-Methyl-3-{1-(pentan-3-yl)-2-(thiophen-2-ylmethyl)-1H-benzo[d]imidazole5-carboxamido}hexanoic Acid]
Apelin receptor
  Bias towards Gαi signaling over receptor internalization: ~ 6000 fold
  Bias towards Gαi signaling over β-arrestin recruitment: ~ 400 fold

## COc1cccc(OC)c1-c1cc(C(=O)N[C@@H](CCC2CCCCC2)CC(=O)O)nn1-c1ccc(F)cc1 [Compound 9, (S)-5-cyclohexyl-3-(5-(2,6-dimethoxyphenyl)-1-(4-fluorophenyl)-1H-pyrazole-3-carboxamido)pentanoic acid]
NTR2
  Off-target NTR2 activity: significantly reduced
[2]
  Activity at AT1 receptor, previously reported: did not activate or inhibit
[1]
  Stability in human liver microsomes: excellent stability
  CLint scaled at 2 h, 1 µM: 5 mL/min/kg

## COc1cccc(OC)c1-c1cc(C(=O)N[C@@H](CCC2CCCCC2)CC(=O)O)nn1CC1CCCCC1 [Compound 15, (S)-5-Cyclohexyl-3-(1-(cyclohexylmethyl)-5-(2,6-dimethoxyphenyl)-1H-pyrazole-3-carboxamido)pentanoic acid]
hAPJ
  Activity in cAMP assay: completely inactive

## COc1cccc(OC)c1-c1cc(C(=O)N[C@@H](CCC2CCCCC2)CC(=O)O)nn1C1CCCCCCC1 [Compound 16, (S)-5-Cyclohexyl-3-(1-cyclooctyl-5-(2,6-dimethoxyphenyl)-1H-pyrazole-3-carboxamido)pentanoic acid]
hAPJ
  Activity in cAMP assay: completely inactive

## CC1=CC(=O)C(C2CCCCC2)=C/C1=N\OS(=O)(=O)c1ccccc1 [ML233, (E)-2-cyclohexyl-5-methyl-4-(phenylsulfonyloxyimino)cyclohexa-2,5-dienone]
[3]
  Stability in microsomal fractions: poor
[4]
  Solubility: poor solubility
[5]
  Off-target binding: significant off-target binding
